Measured values as given in patent US20160243237A1, “EMULSIONS OF PERFLUOROCARBONS” (TENAX THERAPEUTICS, INC., priority 2009, published 2016).
Entries after “also recorded” stand apart in the source; their conditions may differ.

What was measured:
[1] = Mechanical stability of the emulsion with tonicity adjusters; format: physicochemical; conditions: tonicity adjuster compared with sodium chloride
Text: Glycerin USP is used in the formulation to adjust the tonicity of the emulsion. For intravenous infusion, it is important that the tonicity of the emulsion be in the same physiological range as blood tonicity. Glycerin was chosen because it has a long history of use in parenteral emulsions and because it is not an ionizable species that could contribute to coalescence of the emulsion particles by disruption of the charged layer (zeta potential) surrounding the particles.

[2] = Physical properties of perfluoro(tert-butylcyclohexane); format: physicochemical
Text: Physical properties of perfluoro(tert-butylcyclohexane) are as follows: […]

[3] = Gas carrying capacity (oxygen, CO2); format: physicochemical; conditions: at body temperature
Experimental: Perfluoro(tert-butylcyclohexane) can carry about 43 mL of oxygen per 100 mL of PFC, and 196 mL of CO2 per 100 mL of PFC at body temperature.
FtBu can dissolve and release large amounts of gases, including the blood gases oxygen and carbon dioxide. […] As such, no sinusoidal release curve of oxygen is encountered. The transport and release of oxygen and other gases by FtBu is a simple passive process, the quantity of gas dissolved is linearly related to its partial pressure, essentially following Henry's Law.
In the body the PFC emulsion is capable of uploading and unloading oxygen and CO2 more efficiently than blood, (at a FtBu concentration of 60% w/v, Oxycyte® can dissolve 3-4 times the amount of oxygen than human hemoglobin can off-load under normal physiological conditions) and this process is concentration-gradient mediated (Henry's Law). Because the median size of the PFC droplets is approximately 40-50 times smaller than an erythrocyte, Oxycyte® is able to oxygenate tissues with narrowed capillaries, as occurs in brain contusions. After about 10 hours, half of an intravenous dose of 3 mL/kg remains in the circulation. PFCs are eliminated from the blood when macrophages scavenge the lipid particles. This is quite similar to how Intralipid® is transported from the blood stream. PFCs are deposited in the liver and spleen. […]

[4] = Solubility of FtBu in water and solvents; format: physicochemical; conditions: room temperature
Text: FtBu is most soluble in halogenated solvents such as isoflurane. Therefore, FtBu needs to be formulated as an aqueous emulsion for intravenous administration.

monkeys = assay: Single-dose GLP toxicity study, pulmonary hyperinflation; format: in vivo; conditions: 60% and 20% w/v, compared with PFOB
Text: (§1) Perfluoro(tert-butylcyclohexane) at both 60% and 20% w/v concentrations has been tested in controlled, single-dose Good Laboratory Practice (GLP) toxicity studies in rats and monkeys. […] Nevertheless, perfluoro(tert-butylcyclohexane) represents a better balance between persistence and the tendency to produce hyperinflated, non-collapsible lungs than what is seen with PFOB and perfluorodecalin.

rats and monkeys = assay: Single-dose GLP toxicity studies, absorption and persistence; format: in vivo
Text: as §1

skin tissue = assay: Measuring oxygen tension in tissue with fluorescent marker (Example 3); format: in vivo; conditions: skin area treated with PFC
Experimental: A material which binds oxygen (fluorescent marker) is injected into skin tissue. The combination is fluorescent and the more oxygen that is present, the stronger the fluorescent signal. (representing the oxygen tension in the tissue). First it is determined that fluorescence chemistry is unaffected by the PFCs and poloxamers. Then as a control, the fluorescent marker is injected into the skin, and oxygen tension is obtained. Finally, the same area is treated with a PFC, PFC emulsion or a PFC gel and oxygen tension is again obtained.

| Structure (SMILES) | mechanical stability of the emulsion [1] | Density [2] [g/mL] | Kinematic Viscosity [2] [cP] | Vapor Pressure @ 25° C. ([2]; 25° C.) [mmHg] | Vapor Pressure @ 37° C. ([2]; 37° C.) [mmHg] | CO2 carried [3] | oxygen carried [3] | solubility in 2,2,4-trimethylpentane(isooctane) [4] | solubility in halogenated solvents such as isoflurane [4] | solubility in water [4] | degree of pulmonary hyperinflation (monkeys) | persistence in liver and spleen (RES half-life) (rats and monkeys; compared with PFOB) | absorption in the body (rats and monkeys; single dose) | local oxygen tension in the tissue (skin tissue) |
| --- | --- | --- | --- | --- | --- | --- | --- | --- | --- | --- | --- | --- | --- | --- |
| OCC(O)CO [glycerin, Glycerin] | superior to sodium chloride | – | – | – | – | – | – | – | – | – | – | – | – | – |
| OC[C@@H](O)[C@@H](O)[C@H](O)[C@H](O)CO [mannitol] | superior to sodium chloride | – | – | – | – | – | – | – | – | – | – | – | – | – |
| FC(F)(F)C(C(F)(F)F)(C(F)(F)F)C1(F)C(F)(F)C(F)(F)C(F)(F)C(F)(F)C1(F)F [perfluoro(tert-butylcyclohexane), 1-(1,1-bis(trifluoromethyl)-2,2,2-trifluoroethyl)-1,2,2,3,3,4,4,5,5,6,6-undecafluorocyclohexane] | – | 1.97 | 5.378 | 3.8 | 4.4 | ~196 mL of CO2 per 100 mL of PFC | about 43 mL of oxygen per 100 mL of PFC | only minimal solubility | most soluble | virtually insoluble in water | significantly less than that seen in monkeys treated with PFOB; also recorded: correspondingly lesser propensity to cause pulmonary hyperinflation | somewhat longer than what has been reported for PFOB; also recorded: somewhat longer than that of the benchmark perfluorocarbon, PFOB | generally comparable to what has been reported for other PFCs | substantially increases local oxygen tension |
